# In PMC12406255, “Engineering Peptide Modulators for T‑Cell Migration by Structural Scaffold Matching” (Journal of Medicinal Chemistry, 2025):
# Read-outs that look alike come from different tables or passages of the source. Positions of bridges follow the written chain, without caps; N, C: chain ends. Non-standard residues stand in square brackets, D forms with d. Residues, ends and D or L forms follow the SMILES beside them. Nle = CCCC[C@H](N)C(=O)O
# Experiments:
# Type in all cases: cell-based, human
# [1] = tested on: memory CD8+ cells (CD3+, CD8+, CD45RO+); conditions: for % Inhibition of cell migration compared to control, Memory CD8+: normalized to untreated control, mean ± SEM of 4-6 experiments
# Description: (§1) Transwell migration assays were performed similarly as published previously. HMEC-1 cells were seeded at a density of 75,000 cells per well in transwell inserts. Three days after cell seeding, the medium was changed, and the cells were stimulated with 100 ng/mL TNF-α and 20 ng/mL IFN-γ for 16–18 h. On the day of the assay, cells were washed with migration medium (serum-free RPMI medium supplemented with 0.1% BSA) to remove residual cytokines and starved for at least 1 h at 37 °C in migration medium. PBMC were starved for at least 1.5 h in migration medium before addition to the EC. For S1P and lifitegrast-treated samples, the PBMC were preincubated for at least 1.5 h at 37 °C with the ligands before addition to the EC. Pepitem and other peptides were added onto the EC monolayer and preincubated for 15–30 min at 37 °C before the addition of the PBMC. 200,000 PBMC per well were added directly on top of the EC prestimulated with pepitem or other peptides to reach a final volume of 150 μL in the donor compartments. The receiver compartments of the wells were filled with 600 μL RPMI with 20% FBS. After 4 h of migration at 37 °C, the receiver compartment with the migrated cells was collected. The migrated cells were stained with the indicated antibodies: CD3-APC (clone: OKT3, lot: B400127), CD4-PE (clone: OKT4. lot: B379180), CD8-FITC (clone: HIT8a, lot: B370193) from Biolegend and CD3-VioGreen (clone: REA613, lot: 5240502518), CD45RO-FITC (clone: REA611, lot: 5240502519), CD4-PerCP-Vio700 (clone: REA623, lot: 5240506702), CXCR3 PE-Vio615 (clone: REA232, lot: 5240506722), CD196-APC (clone: REA190, lot: 5240506717), CD8-APC-Vio770 (clone: REA734, lot: 5240303993) and CD45RO-PEVio616 (clone: REA611, lot: 5231102514) from Miltenyi Biotec (Bergisch Gladbach, Germany) and counted using precision counting beads (Biolegend) on a CytoflexS flow cytometer (BeckmanCoulter). Data was analyzed using CytExpert (Version 2.4). T cells were gated as CD3^+ cells, T cell subsets were gated as CD4^+ (CD3^+, CD4^+), CD8^+ (CD3^+, CD8^+), memory CD4^+ (CD3^+, CD4^+, CD45RO^+), memory CD8^+ (CD3^+, CD8^+, CD45RO^+) and Th1 cells (CD3^+, CD4^+, CXCR3^+, CCR6^–).
# (§2) Data were analyzed using GraphPad Prism software. EC50 values were calculated by three-parameter nonlinear regression analysis. For this, the data points were normalized to the number of migrated cells in untreated (buffer) control samples (100%), and the regression was fitted with the top constraint to 100 and the slope fixed to 1. Statistical significance is indicated in graphs as n.s. not significant, * p < 0.05; ** p < 0.01; *** p < 0.001. The statistical tests used are indicated in the respective figure captions.
# [2] = tested on: memory CD4+ cells (CD3+, CD4+, CD45RO+); conditions: for % Inhibition of cell migration compared to control, Memory CD4+: normalized to untreated control, mean ± SEM of 4-6 experiments
# Description: as §1, §2
# [3] = tested on: CD8+ lymphocytes (CD3+, CD8+); conditions: for % Inhibition of cell migration compared to control, CD8+: normalized to untreated control, mean ± SEM of 4-6 experiments
# Description: as §1, §2
# [4] = tested on: CD4+ lymphocytes (CD3+, CD4+); conditions: for % Inhibition of cell migration compared to control, CD4+: normalized to untreated control, mean ± SEM of 4-6 experiments
# Description: as §1, §2
# [5] = from the concentration-response experiment
smiles,measurement,setting,value
"CCCC[C@@H]1NC(=O)[C@H](C(C)C)NC(=O)[C@H](CCCCN)NC(=O)[C@@H](NC(=O)[C@H](CCC(N)=O)NC(=O)[C@H](CCC(=O)O)NC(C)=O)CSSC[C@@H](C(=O)N[C@@H](CCC(=O)O)C(=O)N[C@@H](CCCCN)C(N)=O)NC(=O)[C@H](CC(N)=O)NC(=O)[C@H](CC(=O)O)NC(=O)[C@H](CC(C)C)NC(=O)[C@@H]2CSSC[C@H](NC1=O)C(=O)N[C@@H](Cc1ccc(O)cc1)C(=O)N[C@@H](C)C(=O)N[C@@H](CCC(N)=O)C(=O)NCC(=O)N[C@@H](C)C(=O)N[C@@H](CCC(=O)O)C(=O)N[C@@H](CC(C)C)C(=O)N1CCC[C@H]1C(=O)N[C@@H](CCC(=O)O)C(=O)N[C@@H](CC(C)C)C(=O)N[C@@H](CC(C)C)C(=O)N[C@@H](CCCNC(=N)N)C(=O)N[C@@H](CCCNC(=N)N)C(=O)N2 [VhTI-pep 2] (Ac-EQCKV[Nle]CYAQGAELPELLRRCLDNCEK-NH2; disulfide 3-25, 7-21)","% Inhibition of cell migration compared to control, Memory CD8+",[1]; 0.1 μM,23.0 ± 6.9%
same,"% Inhibition of cell migration compared to control, Memory CD8+",[1]; 1 μM,21.9 ± 8.1%
same,EC50,"[1]; EC monolayer pretreated with peptide, healthy-donor PBMC, 4 h, mean ± SD, 4 independent measurements, read-out: EC50, inhibition of memory CD8+ cell migration",6.3 ± 9.7 nM
same,"% Inhibition of cell migration compared to control, Memory CD4+",[2]; 0.1 μM,34.4 ± 16.7%
same,"% Inhibition of cell migration compared to control, Memory CD4+",[2]; 1 μM,31.5 ± 10.4%
same,EC50,"[2]; EC monolayer pretreated with peptide, healthy-donor PBMC, 4 h, mean ± SD, 4 independent measurements, read-out: EC50, inhibition of memory CD4+ cell migration",9.8 ± 16.5 nM
same,"% Inhibition of cell migration compared to control, CD8+",[3]; 0.1 μM,37.0 ± 6.4%
same,"% Inhibition of cell migration compared to control, CD8+",[3]; 1 μM,41.7 ± 8.5%
same,EC50,"[3]; EC monolayer pretreated with peptide, healthy-donor PBMC, 4 h, mean ± SD, 4 independent measurements, read-out: EC50, inhibition of CD8+ cell migration",7.7 ± 11.4 nM
same,"maximal effect of inhibition of cell migration, CD8+ lymphocytes",[3]; [5],40.0 ± 2.8%
same,"% Inhibition of cell migration compared to control, CD4+",[4]; 0.1 μM,34.3 ± 8.0%
same,"% Inhibition of cell migration compared to control, CD4+",[4]; 1 μM,33.2 ± 6.1%
same,EC50,"[4]; EC monolayer pretreated with peptide, healthy-donor PBMC, 4 h, mean ± SD, 4 independent measurements, read-out: EC50, inhibition of CD4+ cell migration",10.5 ± 15.9 nM
same,"maximal effect of inhibition of cell migration, CD4+ lymphocytes",[4]; [5],39.9 ± 12.5%
